Measured values reported in the NIST ThermoML archive (doi:10.1016/j.tca.2018.08.005).
± gives the expanded uncertainty stated by the source.

Columns and labels:
[1] = Crystal; DTA
[2] = Molar enthalpy of transition or fusion; conditions: Crystal; DSC

Normal melting temperature [1]: 35.00 ± 5 °C | Molar enthalpy of transition or fusion [2]: 18 ± 1.84 kcal/mol
SMILES: O.O.O.O.O.O.O.O.O.O.O=S(=O)([O-])[O-].[Na+].[Na+] [sodium sulfate decahydrate]
